Laboratory results published in patent publication EP4324461A1, “(E)-N-CINAMOYLAMINOALKANOLES WITH MELANOGENESIS INHIBITORY ACTIVITY” (UNIWERSYTET JAGIELLONSKI, priority 2022, dated 2024).

Columns and labels:
[1] = Lipophilicity coefficient RM0 by reversed phase thin layer chromatography; format: physicochemical; settings: RP-18 TLC, methanol / 100 mM phosphate buffer pH = 7.4
Summary of the method: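 Reversed-phase TLC on RP-18 F254 silica, with methanol/100 mM phosphate buffer pH 7.4 mobile phases of 95–65% (v/v) methanol, at room temperature, in duplicate. Spots were visualized under UV at 254 nm. RM = log(1/Rf − 1) was plotted linearly against methanol content to derive RM0.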

tyrosinase from mushroom = assay: Inhibition of commercial mushroom tyrosinase (L-DOPA or L-tyrosine substrate); format: biochemical
Summary of the method: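 Tyrosinase (1U/well or 3U/well) in 50 mM phosphate buffer pH 6.8 with compound at final 500, 250 or 125 µM; L-DOPA (diphenolase) or L-tyrosine (monophenolase) added in separate runs. Absorbance at 475 nm after 25 min; % inhibition versus DMSO control.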

[2] = tested on: B16-F10 murine melanoma cell line; assay: Cytotoxicity in B16-F10 cells (MTT); format: cell-based; settings: 48 h
Summary of the method: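 Cells in F10-Ham with 1% FBS exposed to various compound concentrations for 48 h after 24 h pre-culture. MTT read-out: formazan dissolved in DMSO, absorbance at 570 nm. Viability expressed as percent of DMSO control (AT/AC×100).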

[3] = tested on: human reconstructed epidermis model EpiDerm™; assay: Extended skin irritation test in reconstructed human epidermis (EpiDerm), 2 and 7 days; format: cell-based; settings: 1.0% in 50% PEG (10 µL)
Method: In order to perform extended skin irritation (safety) tests on the reconstructed human epidermis, the exposure time to the tested compounds was extended to 2 and 7 days in the human reconstructed epidermis model EpiDerm™ from MatTek. The epidermis was cultured according to the manufacturer's recommendations, using appropriate multi-well plates and culture media. Solutions of the tested compounds were applied to the epidermis using a positive displacement pipette and distributed using a sterile glass bulb headed Pasteur pipette. […] The epidermis was cultured in an incubator ensuring appropriate humidity, temperature (37 °C) and CO2 concentration (5%). The medium was replaced daily. After an appropriate incubation time, i.e. 2 days or 7 days, the epidermis was rinsed with sterile DPBS and incubated with MTT (Thiazolyl Blue Tetrazolium bromide) solution at 37 °C for 3 hours. After this time, a purple color of formazan was observed, correlated with tissue viability. […] Moreover, in the medium collected after the first 24 hours of EpiDerm epidermis culture, the level of interleukin 1α (Il-1α), which is a mediator of inflammation, was determined. Its level correlates with the unfavorable (irritating) effect of the tested substances on the epidermis. The level of IL-1α was determined using the Cayman Elisa test. […] Table 6. Viability results and results of interleukin 1α concentration measurement in the culture medium in the irritation test in the reconstructed human epidermis model EpiDerm.

[4] = tested on: Chinese hamster ovary cell line (CHO-K1); assay: Genotoxicity in the micronucleus test in CHO-K1 cells; format: cell-based
S. typhimurium TA1535 = assay: Ames microplate test, TA1535;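 further: bacteria exposed to compound 90 min at 37 °C, then kept 48 h at 37 °C with indicator medium in 384-well plates, scoring wells that turned yellow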
Method: The study used the Ames microplate test (Ames MPF™ Penta 2 by Xenometrix, Allschwil, Switzerland). Growth medium, exposure medium, indicator medium, positive controls, hepatic microsomal fraction, NADP, glucose-6-phosphate, Salmonella typhimurium and Escherichia coli strains were components of the purchased experimental kit. Bacteria were grown overnight in growth medium. They were then exposed to the test compound at the appropriate concentration in exposure medium without or with the rat microsomal fraction S9 in 24-well plates for 90 min at 37 °C with shaking. Then, indicator medium was added to the wells and pipetted into 384-well plates, which were incubated for 48 hours at 37 °C without shaking. Results were assessed by counting the wells in which the medium turned yellow for each experimental condition.

O=C(/C=C/c1ccccc1)NCCCCCCO [H-425/21, (E)-N-(6-hydroxyhexyl)cinnamic acid amide]
RM0 [1]: 2.40 | Tyrosinase inhibition with L-DOPA [%] (tyrosinase from mushroom; L-DOPA): 34.63±2.46% (500 µM) | Tyrosinase inhibition with L-tyrosine [%] (tyrosinase from mushroom; L-tyrosine): 44.61±5.99% (500 µM) | IC50 (tyrosinase from mushroom; L-tyrosine, read-out: Tyrosinase inhibition with L-tyrosine, IC50): 764 µM | Cytotoxicity study in B16F10 cells % viability ([2]; 150 µM): 109.2% | Cytotoxicity study in B16F10 cells % viability ([2]; 200 µM): 98.4% | Cytotoxicity study in B16F10 cells % viability ([2]; 250 µM): 86.9% | Il-1α in culture medium ([3]; medium after the first 24 hours): 60.29 ± 1.08 pg/mL | Viability [% of control, mean±SD] ([3]; 2 days): 99.75±15.49 % of control | Viability [% of control, mean±SD] ([3]; 7 days): 104.01±1.11 % of control | DB (dicentric bridges in 1000 binucleate cells) ([4]; 100 µM): 2.5 ± 0.7 | MN (number of micronuclei in 1000 binucleate cells) ([4]; 100 µM): 11.0 ± 4.2 | NB (nuclear buds in 1000 binucleate cells) ([4]; 100 µM): 3.5 ± 0.7 | NDI (nuclear division index) ([4]; 100 µM): 1.56 | DB (dicentric bridges in 1000 binucleate cells) ([4]; 150 µM): 2.5 ± 2.1 | MN (number of micronuclei in 1000 binucleate cells) ([4]; 150 µM): 11.5 ± 0.7 | NB (nuclear buds in 1000 binucleate cells) ([4]; 150 µM): 3.5 ± 0.7 | NDI (nuclear division index) ([4]; 150 µM): 1.52 | DB (dicentric bridges in 1000 binucleate cells) ([4]; 200 µM): 4.5 ± 3.5 | MN (number of micronuclei in 1000 binucleate cells) ([4]; 200 µM): 12.5 ± 6.4 | NB (nuclear buds in 1000 binucleate cells) ([4]; 200 µM): 5.5 ± 0.7 | NDI (nuclear division index) ([4]; 200 µM): 1.60 | Increase in the number of yellow wells compared to the reference level (S. typhimurium TA1535; 0.5 mM, +S9): 0.54 | Increase in the number of yellow wells compared to the reference level (S. typhimurium TA1535; 0.5 mM, without S9): 1.04 | Increase in the number of yellow wells compared to the reference level (S. typhimurium TA1535; 1.0 mM, +S9): 0.40 | Increase in the number of yellow wells compared to the reference level (S. typhimurium TA1535; 1.0 mM, without S9): 0.59 | Increase in the number of yellow wells compared to the reference level (S. typhimurium TA1535; 2.0 mM, +S9): 0.94 | Increase in the number of yellow wells compared to the reference level (S. typhimurium TA1535; 2.0 mM, without S9): 0.45
